Series [1] in a line: Aqueous solubility at two pH levels. It counts as physicochemical. The settings on record: aqueous solution.
A short description of the next series: Rat PK (p.o.). The settings on record: plasma, po. It is filed as in vivo.
Another series deals with HDAC. The following applies: cells treated with compound; Ying et al. 2008a; read-out: IC50 HDAC inhibition; cited from earlier work.
The next series relates to HCT116 cells. The settings on record: Ying et al. 2008b; cited from earlier work.
Another series deals with melanoma cell lines. The settings on record: series of melanoma cell lines; Bowers et al. 2008; cited from earlier work.
Another series has as its system MDA-MB231. The following applies: Taori et al. 2008; cited from earlier work.
The subject of another series is HCT 116 cells. The settings on record: Zeng et al. 2010; cited from earlier work.
Another series concerns HEK293. The following applies: HEK293 normal cell line; Zeng et al. 2010; cited from earlier work.
The subject of another series is HLF cells. The following applies: HLF normal cell line; Zeng et al. 2010; cited from earlier work.
The subject of series [2] is HDAC proteins from class I and class II. The following applies: purified full length HDAC proteins; Bowers et al. 2008; cited from earlier work.
Where [3] appears, read: 10 mg/kg, Vehicle (0.02N HCl sol.).
[4] abbreviates: 15 mg/kg, Vehicle (0.1N citrate buffer).

SMILES strings stand for the structures. ≈ marks a conversion by molar mass, not a printed value. Structures can show the parent of a compound that is named as a salt.

Data on nine molecules can be found in patent publication US11203602B2, “Thioester prodrugs of macrocycles as inhibitors of histone deacetylases” (OnKure, Inc., priority 2016, dated 2021).

With `CC(C)[C@@H]1NC(=O)C(C)(C)NC(=O)c2csc(n2)CNC(=O)C[C@@H](/C=C/CCSC(=O)[C@H](N)C(C)C)OC1=O.Cl` [Example 1, (R)—S-((E)-4-((7S,10S)-7-isopropyl-4,4-dimethyl-2,5,8,12-tetraoxo-9-oxa-16-thia-3,6,13,18-tetraazabicyclo[13.2.1]octadeca-1(17),15(18)-dien-10-yl)but-3-en-1-yl) 2-amino-3-methylbutanethioate Hydrochloride], in [1] (pH 3, aqueous buffer), the solubility – broadly, how much of the substance goes into solution per volume – was 8.67 mg/mL. In [1] (pH 6, aqueous buffer), this molecule gave a solubility of 10.5 mg/mL. For the same molecule, in the series “Rat PK (p.o.)” (setting [3]), the AUC(0-inf) (as a rule, the area under the concentration-time curve extrapolated to infinity) was 257 ng·h/mL; the highest concentration (Cmax) (in general, the peak of the concentration-time curve) was found to be 86 ng/mL; the Tmax (as a rule, the time from dosing to the highest level) stood at 0.42 h; the half-life (commonly the time in which the quantity being followed falls by half) is 8.53 h.
For the molecule `CC(C)[C@H](N)C(=O)SCC/C=C/[C@@H]1CC(=O)NCc2nc(cs2)C(=O)NC(C)(C)C(=O)N[C@@H](C(C)C)C(=O)O1.Cl` [Example 2, (S)—S-((E)-4-((7S,10S)-7-isopropyl-4,4-dimethyl-2,5,8,12-tetraoxo-9-oxa-16-thia-3,6,13,18-tetraazabicyclo[13.2.1]octadeca-1(17),15(18)-dien-10-yl)but-3-en-1-yl) 2-amino-3-methylbutanethioate Hydrochloride], the solubility in [1] (pH 3, aqueous buffer) was 12.3 mg/mL. Moreover, the solubility in series [1] (pH 6, aqueous buffer) stood at 18 mg/mL. In the series “Rat PK (p.o.)” (setting [3]), the total exposure AUC(0-inf) amounted to 267 ng·h/mL, the highest level (Cmax) was 123 ng/mL, the Tmax worked out at 0.48 h and the half-life was 8.23 h.
Molecule `CC(C)[C@H](N)C(=O)SCC/C=C/[C@@H]1CC(=O)NCc2nc(cs2)C(=O)NC(C)(C)C(=O)N[C@@H](C(C)C)C(=O)O1.O=S(=O)(O)c1ccccc1` [Example 3, (S)—S-((E)-4-((7S,10S)-7-isopropyl-4,4-dimethyl-2,5,8,12-tetraoxo-9-oxa-16-thia-3,6,13,18-tetraazabicyclo[13.2.1]octadeca-1(17),15(18)-dien-10-yl)but-3-en-1-yl) 2-amino-3-methylbutanethioate Benzenesulfonate] came in with a solubility in series [1] (pH 3, aqueous buffer) of 7.5 mg/mL. In addition, in the series “Rat PK (p.o.)” (setting [4]), the AUC(0-inf) worked out at 583 ng·h/mL, the Cmax is 253 ng/mL, the Tmax amounted to 0.6 h and the half-life is 12.4 h.
With `CC(C)[C@@H]1NC(=O)C(C)(C)NC(=O)c2csc(n2)CNC(=O)C[C@@H](/C=C/CCSC(=O)[C@H](C)N)OC1=O` [Example 4, (S)—S-((E)-4-((7S,10S)-7-isopropyl-4,4-dimethyl-2,5,8,12-tetraoxo-9-oxa-16-thia-3,6,13,18-tetraazabicyclo[13.2.1]octadeca-1(17),15(18)-dien-10-yl)but-3-en-1-yl) 2-aminopropanethioate Oxalate], the solubility in [1] (pH 3, aqueous buffer) came to 15.4 mg/mL. In addition, the solubility in series [1] (pH 6, aqueous buffer) was 25.2 mg/mL. In the series “Rat PK (p.o.)” (setting [3]), the AUC(0-inf) stood at 176 ng·h/mL, the peak concentration (Cmax) came to 51 ng/mL, the Tmax was determined as 1 h and the half-life was 6.09 h.
For `CC(C)[C@@H]1NC(=O)C(C)(C)NC(=O)c2csc(n2)CNC(=O)C[C@@H](/C=C/CCSC(=O)[C@@H](C)N)OC1=O` [Example 5, (R)—S-((E)-4-((7S,10S)-7-isopropyl-4,4-dimethyl-2,5,8,12-tetraoxo-9-oxa-16-thia-3,6,13,18-tetraazabicyclo[13.2.1]octadeca-1(17),15(18)-dien-10-yl)but-3-en-1-yl) 2-aminopropanethioate Oxalate], the solubility came to 45.5 mg/mL in series [1] (pH 3, aqueous buffer) and 41.8 mg/mL in [1] (pH 6, aqueous buffer).
The molecule `CC(C)[C@@H]1NC(=O)C(C)(C)NC(=O)c2csc(n2)CNC(=O)C[C@@H](/C=C/CCSC(=O)CN(C)C)OC1=O` [Example 6, S-((E)-4-((7S,10S)-7-isopropyl-4,4-dimethyl-2,5,8,12-tetraoxo-9-oxa-16-thia-3,6,13,18-tetraazabicyclo[13.2.1]octadeca-1(17),15(18)-dien-10-yl)but-3-en-1-yl) 2-(dimethylamino)ethanethioate] returned a solubility in series [1] (pH 3, aqueous buffer) of 2.45 mg/mL (≈ 4.32 mM). The molecule also came in with a solubility in series [1] (pH 6, aqueous buffer) of 2.32 mg/mL (≈ 4.09 mM). For the same molecule, in “Rat PK (p.o.)” (setting [3]), the area under the curve AUC(0-inf) worked out at 272 ng·h/mL, the peak level (Cmax) was 107 ng/mL, the Tmax was 0.83 h and the half-life was 5.86 h.
Turning to `CC(C)[C@@H]1NC(=O)C(C)(C)NC(=O)c2csc(n2)CNC(=O)C[C@@H](/C=C/CCSC(=O)c2cccnc2)OC1=O` [Example 7, S-((E)-4-((7S,10S,Z)-7-isopropyl-4,4-dimethyl-2,5,8,12-tetraoxo-9-oxa-3,6,13-triaza-1(4,2)-thiazolacyclotetradecaphane-10-yl)but-3-en-1-yl) pyridine-3-carbothioate], in the series “Rat PK (p.o.)” (setting [3]), the AUC(0-inf) was 240 ng·h/mL, the Cmax worked out at 150 ng/mL, the Tmax is 0.33 h and the half-life was 6.88 h.
As to `CC(C)[C@@H]1NC(=O)[C@]2(C)CSC(=N2)c2csc(n2)CNC(=O)C[C@@H](/C=C/CCS)OC1=O` [largazole thiol], the results for the IC50 in the series on HDAC and with melanoma cell lines were 209 nM and 380 to 2600 nM, respectively. In addition, the GI50 (usually the concentration that inhibits growth by half) in the series on HCT116 cells is 38 nM.
As to `CCCCCCCC(=O)SCC/C=C/[C@@H]1CC(=O)NCc2nc(cs2)C2=N[C@@](C)(CS2)C(=O)N[C@@H](C(C)C)C(=O)O1` [largazole, Largazole], the concentration for 50% growth inhibition (GI50) was 7.7 nM in the series on MDA-MB231; 44 nM in the series with HCT116 cells; 80 nM in the series on HCT 116 cells; 1360 nM in the series with HEK293; 980 nM in the series on HLF cells. Moreover, the IC50 – broadly, the concentration that gives 50% inhibition – was 51 nM with HDAC and 45 to 315 nM in the series with melanoma cell lines. In addition, the “HDAC inhibition in vitro compared to the thiol” value in series [2] is on record as “much weaker HDAC inhibitor”. Further, the “preference for HDACs 1, 2, and 3 over HDAC6” value in series [2] was “pronounced preference”.
